Source: ChEMBL document CHEMBL1212791 (Antimicrob Agents Chemother, 2010)

Legend:
Type in all cases: ADME, organism-based
[1] = Terminal disposition rate in liver transplant patient with end-stage liver disease at 200 mg/kg, po bid; set-up: dose 200 mg/kg, route oral; conditions: human, in vivo, read-out: Activity (converted)
[2] = tested on: Homo sapiens; test: Plasma concentration in liver transplant patient with end-stage liver disease at 200 mg/kg, po bid; set-up: dose 200 mg/kg, route oral; conditions: in vivo
[3] = Volume of distribution at steady state with respect to bioavailability in liver transplant patient with end-stage liver disease at 200 mg/kg, po bid; conditions: human, in vivo, read-out: Vc/F
[4] = Mean residence time in liver transplant patient with end-stage liver disease at 200 mg/kg, po bid; set-up: dose 200 mg/kg, route oral; conditions: human, in vivo
[5] = AUC (0 to infinity) in liver transplant patient with end-stage liver disease at 200 mg/kg, po bid; set-up: time infinity, dose 200 mg/kg, route oral; conditions: human, in vivo
[6] = Cmax in liver transplant patient with end-stage liver disease at 200 mg/kg, po bid; set-up: dose 200 mg/kg, route oral; conditions: human, in vivo
[7] = tested on: Homo sapiens; test: AUMC (0 to infinity) in liver transplant patient with end-stage liver disease at 200 mg/kg, po bid; set-up: dose 200 mg/kg, route oral; conditions: in vivo
[8] = Terminal half life in liver transplant patient with end-stage liver disease at 200 mg/kg, po bid; set-up: dose 200 mg/kg, route oral; conditions: human, in vivo, read-out: beta t1/2 (converted)
[9] = Tmax in liver transplant patient with end-stage liver disease at 200 mg/kg, po bid; set-up: dose 200 mg/kg, route oral; conditions: human, in vivo
[10] = tested on: Homo sapiens; test: Clast in liver transplant patient with end-stage liver disease at 200 mg/kg, po bid; set-up: dose 200 mg/kg, route oral; conditions: in vivo

Work on C[C@@H](c1ncncc1F)[C@](O)(Cn1cncn1)c1ccc(F)cc1F [VORICONAZOLE] yielded a k el [1] of 1.67e-05 s⁻¹, a Cp [2] of 1000 ng/mL and a Vd/F [3] of 94.5 L. For the same molecule, the MRT [4] was 78.2 h, the AUC(0-inf) [5] was 25900 ng·h/mL and the Cmax [6] was 2900 ng/mL. The AUMC [7] was 2557.5 hr.hr.ug/ml, the half-life [8] was 15 h and the Tmax [9] was 1.8 h. It also gave a Clast [10] of 1600 ng/mL.
